This passage reports melting point results from a melting point compilation (Tetko et al.; mined from patent text by program, amines drawn as free bases though some values may be those of a salt).

The melting point is the temperature of the solid-liquid transition.

The structures appear in SMILES notation.

Consider `O=C(O)CCC1c2ccccc2C(=O)N1c1ccccc1` (centres undefined), for which the melting point was in the range of 186 to 187 °C.

Regarding `CCOc1cc2c(cc1O)C(=O)CC(C)(C)O2`, the melting point lay in the range of 129 to 130 °C. The same measure for `COC(=O)Cc1ccc(OCC2CN(c3ccc(C(=N)N)cc3)C(=O)O2)cc1` (centres undefined): 151 to 152 °C; for `CC(=O)C(Cc1cc(Cl)cc(Cl)c1)C(C)=O`: 85 to 87 °C; for `CCOP(=O)(CNCc1cccnc1-c1cc(OC)c(O)c(OC)c1)OCC`: 99 to 101 °C. In the case of `CCOC(=O)c1[nH]c(=O)n(C)c(=O)c1OCc1ccccc1` it was 184 to 187 °C; in that of `CC(=O)NC[C@H]1CN(c2ccc(C(=O)c3cnc4c5ccccc5ccn34)cc2)C(=O)O1`, 239 to 240 °C; in that of `CCC(COC)NC(=O)C(C)(C)c1ccc(-c2ccccc2)c(F)c1` (centres undefined), 81 to 82 °C.

`CCOC(=O)c1cnn(-c2ccc3ccccc3n2)c1S(N)(=O)=O` returned a melting point of 140 to 141 °C.

Take `CCCCCc1cc(OC)c(C2=C[C@H]3CC[C@]2(CO)C3(C)C)c(OC)c1`: the melting point is 26 to 27 °C. In the case of `COc1ccc(CC(=O)c2cc(OC)cc(OC)c2)cc1` it was 93 to 94 °C; in that of `CC(CCNc1cccc(-c2ccnc3c(C(=O)c4cccs4)cnn23)c1)CC(C)(C)C` (centres undefined), 81 to 85 °C; in that of `COc1ccccc1NC(=O)c1ccc(CN2CCOCC2)cc1`, 90 to 93.5 °C. In the case of `CN1CC2c3cccn3Cc3ccccc3N2C(=O)C1=O` (centres undefined) it was 178 to 179 °C; in that of `O=C(NO)c1ccc(OCCNS(=O)(=O)c2ccc(C(=O)Nc3ccc(Cl)c(-c4ccccn4)c3)c(Cl)c2)cc1`, 138 to 139 °C; in that of `CCCCOc1c(CO)n(CC(C)(C)C)c(=O)c2ccc(F)cc12`, 143 to 144 °C.

Take `NN1C=Nc2ccc(Cl)cc2C1(O)c1ccccc1` (centres undefined): the melting point lay within 157 to 158 °C.

For `CS(=O)(=O)c1ccc(-c2cnn(-c3cccc(Cl)c3)c(=O)c2COc2ccc(F)cc2)cc1`, the melting point fell in the range of 50 to 80 °C. The same measure for `COc1cccc(C(NC(=O)Cc2c(Cl)cncc2Cl)C2CCCC2)c1` (centres undefined): 105 to 106 °C; for `O=C(O)CCCCc1c[nH]c2ccc(F)cc12`: 86 to 92 °C.

In turn, `N#Cc1cnc2cc3ccc(O)cc3cc2c1Nc1ccc(Cl)cc1Cl` showed a melting point above 300 °C. `BrCCCCOc1ccc(OCCCBr)cc1` registered a melting point of 73 to 76 °C.

In turn, `O=C(Nc1ccc(C(F)(F)F)cc1)C(Cl)=NNc1ccc(Cl)cc1` displayed a melting point of 167 to 168 °C.

In turn, `CC(C)c1nc2c(OCc3ccccc3)cc(Br)cc2n1C` gave a melting point of 132 to 133 °C. The same measure for `CCCCCOC(=O)n1c(N)nc(C#N)c1C#N`: 166 to 169 °C. `O=C(O)c1ccc(C2(F)CC2c2ccc(Cl)cc2)cc1` (centres undefined) had a melting point of 204 °C.

In the case of `CNC1=NN(c2cccc(C(F)(F)F)c2)CC1`, the melting point was found to be 93.1 °C. Molecule `O=S(=O)(c1ccccc1)c1ccc(-c2ccccc2)s1` displayed a melting point of 115 to 116 °C. The same measure for `[N-]=[N+]=NC1(c2nc(N)nc(N)n2)C=CC(c2ccccc2)=CC1` (centres undefined): 230 °C.

Turning to `C#CCN1N=C(c2ccc(OC)c(OC)c2)[C@@H]2CCCC[C@@H]2C1=O` (relative stereo), the melting point was in the range of 118 to 121 °C. The same measure for `O=[N+]([O-])c1cc(CBr)cc(CBr)c1`: 100 to 101 °C; for `COc1ccccc1NC(=O)Nc1nc(N2CCC(O)CC2)nc(N(CCC(=O)O)Cc2ccc(Cl)c(Cl)c2)n1`: 121 to 124 °C. The molecule `Cn1c2c(c3ccccc31)SCCC2(C)C=O` (centres undefined) yielded a melting point of 119 to 123 °C. `CC(C)(C)OC(=O)N1C(=O)[C@@H](O[Si](C)(C)C)[C@H]1c1ccccc1`: the melting point was 85 to 88 °C. `Cc1cccc(N2Cc3nc(C(=O)O)nn3-c3ccccc32)c1C` registered a melting point of 195 to 197 °C.

Molecule `O=c1cccccc1N1CCN(c2cccccc2=O)CC1` had a melting point of 184 to 186 °C.

Turning to `CC(=O)O[C@H]1CC[C@H](c2ccc(I)cc2)CC1`, the melting point is 84.4 to 85.4 °C.

`Cc1ccc(C(=O)[C@H]2C[C@H]2C(=O)O)cc1` (relative stereo): the melting point was in the range of 165 to 166 °C. The same measure for `COc1ccc2c(c1)C(=O)C(Cc1ccccn1)CO2` (centres undefined): 112 to 114 °C; for `COC(=O)c1cccc(-c2cn(C)cc(-c3cccc(C)c3)c2=O)c1`: 180 to 183 °C; for `COC(=O)c1nc(-c2ccc(Cl)c(OC)c2F)nc(N)c1C(C)F` (centres undefined): 150 to 152 °C. The same measure for `CCOc1ccc2ccc(NC(=O)c3ccc(OC)cc3)nc2n1`: 152 °C; for `Cc1nc(-c2ccccc2)cc(-c2cccc(C#N)c2)c1C(=O)NCCN1CCOCC1`: 166 to 168 °C. The same measure for `CCOC(=O)N1CCC(Nc2nc3ccccc3n2Cc2ccoc2C)CC1`: 150 °C; for `CC(C)c1ccc(N(Cc2ccc(OCc3ccccc3)cc2)C(=O)C2CCCc3ccccc32)cc1` (centres undefined): 120 to 121 °C; for `Cc1ccc(CCCOc2c(C)cc(-c3nnn(C)n3)cc2C)nn1`: 114 to 115 °C. `CC(C)CCC1(c2ccccc2)CC(O)=C(Sc2ccccc2C(C)C)C(=O)O1` (centres undefined) gave a melting point of 64 to 66 °C.

Molecule `CCCCc1c(CNC(=O)OC(C)(C)C)c(CC(C)C)nc2ccc(OCc3ccccc3)cc12` showed a melting point of 131 to 132 °C. In the case of `Cc1ccc(C2c3c(C)c(N4CCN(C)CC4)c(C)c(C)c3OC2(C)C)cc1` (centres undefined) it was 188 to 190 °C; in that of `NC(=O)c1ccccc1-c1cnn(CCN2CCCCC2)c1`, 168 °C.

As to `C=Cc1ccc(CSC(CC(=O)O)C(=O)O)cc1` (centres undefined), the melting point lay within 173 to 175 °C. The same measure for `CN1C(=O)C(C(=O)Nc2ccc(F)cc2)S(=O)(=O)c2cc(F)ccc21` (centres undefined): 153 to 155 °C. `CC1=NN(c2cc(Cl)c(C(=O)c3ccc(Cl)cc3)c(Cl)c2)C(=O)NC1` gave a melting point of 257 to 259 °C. In the case of `O=c1c2ccc(F)cc2nc(CSc2ncnc3[nH]cnc23)n1-c1ccccc1Cl` it was 151 to 154 °C; in that of `CS(=O)(=O)c1cc(CCC(=O)O)nc(-c2nc(=O)c3ccc(F)cc3s2)c1`, 236 °C; in that of `Clc1ccc(Oc2ccc(N3CCNCC3)nc2)cc1`, 98 to 100 °C.

`O=C1OC(c2ccc(F)cc2)C(Cn2cncn2)(c2ccc(Cl)cc2Cl)O1` (centres undefined): the melting point lay in the range of 191 to 192 °C. For the molecule `Nc1c(-c2ccccc2)nn2c1ccc1ccccc12`, the melting point lay in the range of 255 to 258 °C. In the case of `COC(=O)[C@@H]1C[C@H](NS(=O)(=O)c2ccccc2)C(=O)[C@H]2[C@@]1(C)CC[C@H]1C(=O)O[C@H](c3ccoc3)C[C@]21C` it was 271 to 273 °C; in that of `CCOC(=O)N1CCCc2nc3cc(C)ccc3c(C)c2C1`, 132 °C; in that of `CCCNC(=O)c1cc(-c2ccc(OC)cc2)nn(CC2CC2)c1=O`, 101 to 102 °C.

Consider `CCOc1cc(C)nc(-n2ccnc2)n1`, for which the melting point came to 116 °C.

`CC1=CC(OC(=O)c2cccn2C)C(O)C(C)(C)CC1=O` (centres undefined) had a melting point of 141 to 142 °C. In the case of `Cc1cc2cc(F)ccc2n1-c1ccc(OCc2ccccc2)cc1` it was 94 to 95 °C.

As to `CCOC(=O)c1ccc(-c2cc(-c3ccc4c(c3)C(C)(C)CCC4(C)C)ccc2-c2ccccc2)cc1`, the melting point was 233 to 235 °C. In the case of `CCOC(=O)c1ncn2c(C(F)F)cc(-c3ccc(C(F)(F)F)cc3)nc12` it was 219 °C. In the case of `CC(C)c1cccc(-c2ccc(C(=O)NO)nc2)c1` it was 130 to 135 °C. In the case of `CCOC(=O)C(=CNc1ccc(F)c(F)c1O)C(=O)OCC` it was 178 to 180 °C. Turning to `COCCN1CCc2cc(Nc3ncc(Cl)c(Nc4cc(C(N)=O)ccc4OC)n3)c(OC)cc2CC1`, the melting point lay in the range of 218 to 225 °C. Regarding `CS(=O)(=O)Oc1ccc([N+](=O)[O-])c(O)c1`, the melting point was in the range of 123 to 124 °C. The same measure for `O=C1Nc2ccc(C3CCCCC3)cc2C12OCCO2`: 178 to 180 °C. The same measure for `CCOC(=O)c1nc(S(C)(=O)=O)n(C)c(=O)c1OCc1ccccc1`: 84 to 85 °C; for `CCCc1cc(-c2noc3cc(O)ccc23)c(CC)cc1O`: 125 to 127 °C. `C#CCOc1nc(NN)c(C(F)(F)F)cc1Cl` came in with a melting point of 98 to 102 °C.

The molecule `O=C(NC1CCOC(O)C1)c1ccc2nonc2c1` (centres undefined) displayed a melting point of 91 to 92 °C. The same measure for `COC(=O)[C@@H]1C[C@H](OC(=O)Nc2ccc([N+](=O)[O-])cc2)C(=O)[C@H]2[C@@]1(C)CC[C@H]1C(=O)O[C@H](c3ccoc3)C[C@]21C`: 251 to 253 °C; for `CN(C)CCc1cn(Cc2ccccc2)c2ccc(Br)cc12`: 49 to 50 °C. The same measure for `FC(F)(F)c1cc2[nH]c(N3CCN(c4ncccc4C(F)(F)F)CC3)nc2cc1Cl`: 206 to 208 °C; for `CCCCC(=O)Nc1ccc(-c2cc3[nH]c(=O)[nH]c3nc2C)cc1`: above 300 °C. Turning to `Cc1ccccc1CNc1cccc(-c2ccnc3c(C(=O)c4cccs4)cnn23)c1`, the melting point was in the range of 177 to 179 °C. The same measure for `O=C(CN1CCN(c2ccc(NC(=O)c3ccccc3-c3ccc(C(F)(F)F)cc3)cc2)CC1)NCc1cccc(-c2ccccc2)c1`: 165 to 167 °C. In the case of `CC(=O)NC(=S)NCCC1CC2c3cccc4[nH]cc(c34)CC2N(C)C1` (centres undefined) it was 213 to 215 °C. The same measure for `COc1ccc2c(c1)C(=O)C(Cc1ccncc1)CO2` (centres undefined): 91 to 92.5 °C; for `N#Cc1c(-c2cccc(N)c2)cc(-c2ccccc2O)nc1NC(=O)c1ccc(Cl)s1`: 259 to 260 °C. `Cc1cc(-n2ncc(=O)[nH]c2=O)cc(Cl)c1Oc1ccc(O)c(S(=O)(=O)c2ccccc2)c1` yielded a melting point of 78 to 81 °C. The same measure for `OCc1cccc2cccnc12`: 74 to 75 °C. In the case of `O=C1CCn2ncnc2N1` it was 276 to 280 °C; in that of `Oc1ccc(-c2ccc3cc(O)nc-3o2)cc1`, above 300 °C. In the case of `Cc1ccc(-c2c(-c3ccc(S(N)(=O)=O)cc3)[nH]c3ccccc23)cc1` it was 293 to 295 °C.
